Experiments:
[1] = deramciclane alone; cited from earlier work
[2] = target: 5-HT2C (Homo sapiens, UniProt P28335); conditions: read-out: Receptor Affinity (Ki); cited from earlier work
[3] = target: Dopamine D2 (Homo sapiens, UniProt P14416); conditions: read-out: Receptor Affinity (Ki); cited from earlier work
[4] = tested on: NMRI mice; assay: Inhibition of catalepsy generated by haloperidol (45° inclined grid); format: in vivo
Method: Experiments were elaborated on 20-25 g weight NMRI mice. Groups of 10 mice were treated intraperitoneally with 15 mg/kg of haloperidol and carrier agent. Deramciclane (and carriers) were administered orally in different doses 60 minutes later. After a subsequent 60 minutes period mice were placed to a grid which has an inclination angle of 45°. In case of the animals were motionless for more than 30 seconds on the grid the events were seen as catalepsy. The procedure was repeated in every 30 minutes for 3 hours.
The effects are shown by percentage of changes compared to control group.

[5] = target: 5-HT2A (Homo sapiens, UniProt P28223); conditions: read-out: Receptor Affinity (Ki); cited from earlier work
Sequence of 5-HT2A (P28223 whole entry, species assumed): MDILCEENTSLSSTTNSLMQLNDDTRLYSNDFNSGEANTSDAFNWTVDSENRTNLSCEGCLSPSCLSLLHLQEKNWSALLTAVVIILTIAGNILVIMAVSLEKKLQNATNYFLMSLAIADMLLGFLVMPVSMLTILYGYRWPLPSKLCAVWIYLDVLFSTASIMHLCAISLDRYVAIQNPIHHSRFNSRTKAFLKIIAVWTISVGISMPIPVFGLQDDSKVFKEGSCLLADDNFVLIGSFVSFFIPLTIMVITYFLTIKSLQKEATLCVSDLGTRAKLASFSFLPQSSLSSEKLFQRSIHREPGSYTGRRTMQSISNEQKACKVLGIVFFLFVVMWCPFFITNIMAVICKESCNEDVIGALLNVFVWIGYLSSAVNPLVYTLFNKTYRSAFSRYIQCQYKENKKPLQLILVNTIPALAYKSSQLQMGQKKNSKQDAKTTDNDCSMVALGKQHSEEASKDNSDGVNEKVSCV

Sequence of Dopamine D2 (P14416 whole entry): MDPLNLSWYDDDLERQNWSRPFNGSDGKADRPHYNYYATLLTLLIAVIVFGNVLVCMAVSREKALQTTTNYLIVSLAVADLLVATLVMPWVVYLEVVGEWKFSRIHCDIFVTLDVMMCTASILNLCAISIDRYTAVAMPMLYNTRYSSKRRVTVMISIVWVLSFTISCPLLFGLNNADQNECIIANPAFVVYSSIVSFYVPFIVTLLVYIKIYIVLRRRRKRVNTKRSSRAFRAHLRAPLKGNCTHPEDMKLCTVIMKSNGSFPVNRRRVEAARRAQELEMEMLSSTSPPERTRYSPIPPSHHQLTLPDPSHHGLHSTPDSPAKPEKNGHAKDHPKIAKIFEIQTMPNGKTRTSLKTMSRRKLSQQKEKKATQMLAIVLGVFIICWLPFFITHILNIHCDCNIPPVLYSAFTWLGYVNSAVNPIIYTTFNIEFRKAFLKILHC
Sequence of 5-HT2C (P28335 33-458, species assumed): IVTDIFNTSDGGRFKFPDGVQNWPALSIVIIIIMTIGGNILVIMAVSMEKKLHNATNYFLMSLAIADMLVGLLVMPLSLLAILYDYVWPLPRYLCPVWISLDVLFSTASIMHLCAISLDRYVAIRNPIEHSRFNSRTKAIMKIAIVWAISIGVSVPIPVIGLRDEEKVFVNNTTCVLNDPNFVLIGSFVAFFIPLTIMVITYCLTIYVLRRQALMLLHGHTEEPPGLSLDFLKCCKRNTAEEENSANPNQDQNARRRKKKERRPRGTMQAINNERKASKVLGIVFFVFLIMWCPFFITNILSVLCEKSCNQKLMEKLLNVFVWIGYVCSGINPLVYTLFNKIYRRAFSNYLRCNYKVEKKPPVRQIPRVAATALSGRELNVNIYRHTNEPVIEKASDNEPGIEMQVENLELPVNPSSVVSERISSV

Row | SMILES | Catalepsy caused by the compound by itself (in words) [1] | Ki [2] | Ki [3] | Catalepsy (average ± SE)/10 animals ([4]; deramciclane 20 mg/kg po. + haloperidol 15 mg/kg ip., p < 0.05 vs haloperidol) | Catalepsy (average ± SE)/10 animals ([4]; deramciclane 40 mg/kg po. + haloperidol 15 mg/kg ip., p < 0.05 vs haloperidol) | Catalepsy (average ± SE)/10 animals ([4]; deramciclane 80 mg/kg po. + haloperidol 15 mg/kg ip., p < 0.05 vs haloperidol) | Inhibition of catalepsy generated by haloperidol (in words) ([4]; deramciclane 20-80 mg/kg po., haloperidol 15 mg/kg ip.) | Ki [5] | Catalepsy (average ± SE)/10 animals ([4]; haloperidol 15 mg/kg ip. alone (plus carrier))
1 | CN(C)CCO[C@]1(c2ccccc2)C[C@H]2CC[C@]1(C)C2(C)C [Deramciclane, (1R,2S,4R)-(−)-2-[N,N-(dimethylamino-ethoxy)]-2-phenyl-1,7,7-trimethyl-biciklo[2.2.1]heptane] | does not cause catalepsy by itself | 27 nM | 113 nM | 6.5 ± 0.7 /10 animals | 4.7 ± 1.3 /10 animals | 3.5 ± 1.5 /10 animals | inhibits the catalepsy generated by haloperidol in a dose dependent way | 11 nM | –
2 | O=C(CCCN1CCC(O)(c2ccc(Cl)cc2)CC1)c1ccc(F)cc1 [Haloperoidol, haloperidol, reference compound] | – | – | – | – | – | – | – | – | 9.3 ± 0.4 /10 animals

Reference: patent publication US20090124606A1, “Composition for Treatment of Psychosis” (priority 2005, published 2009)
